In patent US10336732B2, “1-heterocyclyl isochromanyl compounds and analogs for treating CNS disorders” (Sunovion Pharmaceuticals Inc., priority 2015, dated 2019):

Each compound was assayed against T1, 5-HT1A (Homo sapiens, UniProt P08908) (assay: In vitro radioligand binding assay, 5-HT1A, [3H]8-OH-DPAT). Conditions: human recombinant (HEK-293 cells).
T1 construct: expressed in transfected cells; host or cells: HEK-293 cells
T1 sequence (P08908 1-422): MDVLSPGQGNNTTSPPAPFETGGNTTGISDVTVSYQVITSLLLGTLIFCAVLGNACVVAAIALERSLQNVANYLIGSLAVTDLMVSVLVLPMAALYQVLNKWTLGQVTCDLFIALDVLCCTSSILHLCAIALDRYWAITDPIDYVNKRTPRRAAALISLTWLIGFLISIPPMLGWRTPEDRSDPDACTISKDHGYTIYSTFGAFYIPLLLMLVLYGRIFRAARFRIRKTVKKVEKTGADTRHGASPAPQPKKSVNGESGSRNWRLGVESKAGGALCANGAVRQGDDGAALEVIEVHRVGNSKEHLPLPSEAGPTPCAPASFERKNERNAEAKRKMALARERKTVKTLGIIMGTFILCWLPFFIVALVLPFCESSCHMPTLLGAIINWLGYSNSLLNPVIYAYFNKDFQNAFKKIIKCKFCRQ
Set-up: concentration or dose not given beside the values
Description: Certain compounds were tested by in vitro binding assays using standard procedures. […] These receptors and assays are well known to those skilled in the art, as exemplified by the following: Abramovitz, M. et al. (2000), Biochem. Biophys. Acta., 1483: 285-293 (EP4, IP (PGI2)); Aharony, D. et al. (1993), Mol. Pharmacol., 44: 356-363 (NK2); Ardati, A. et al. (1997), Mol. Pharmacol., 51: 816-824 (NOP (ORL1)); Bignon, E. et al. (1999), J. Pharmacol. Exp. Ther. 289: 742-751 (CCK1 (CCKA)); Bloomquist, B. T. et al. (1998), Biochem. Biophys. Res. Commun., 243: 474-479 (GAL2); Brockhaus, M. et al. (1990), Proc. Natl. Acad. Sci. U.S.A., 87: 3127-3131 (TNF-α); Brown, G. B. (1986), J. Neurosci., 6: 2064-2070 (Na+ channel (site 2)); Buchan, K. W. et al. (1994), Brit. J. Pharmacol., 112: 1251-1257 (ETA); Cesura, A. M. et al. (1990), Mol. Pharmacol., 37: 358-366 (MAO-A); Choi, D. S. et al. (1994), FEBS Lett., 352: 393-399 (5-HT2B); Clark, A. F. et al. (1996), Invest. Ophtalmol. Vis. Sci., 37: 805-813 (GR); Couvineau, A. et al. (1985), Biochem. J., 231: 139-143 (VPAC1 (VIP1)); Dorje, F. et al. (1991), J. Pharmacol. Exp. Ther., 256: 727-733 (M1, M2, M3, M4); Ferry, G. et al. (2001), Eur. J. Pharmacol., 417: 77-89 (PPARγ); Fuchs, S. et al. (2001), Mol. Med., 7: 115-124 (ETB); Fuhlendorff, J. et al. (1990), Proc. Natl. Acad. Sci. U.S.A., 87: 182-186 (Y2); Ganapathy M E. et al. (1999), J. Pharmacol. Exp. Ther., 289: 251-260 (sigma (non-selective)); Gopalakrishnan, M. et al. (1996), J. Pharmacol. Exp. Ther., 276: 289-297 (N neuronal α4β2); Greengrass, P. and Bremner, R. (1979), Eur. J. Pharmacol., 55: 323-326 (α1 (non-selective)); Grandy, D. K. et al. (1989), Proc. Natl. Acad. Sci. U.S.A., 86: 9762-9766 (D25); Guard, S. et al. (1993), Eur. J. Pharmacol., 240:177-184 (BB (non-selective)); Heuillet, E. et al. (1993), J. Neurochem., 60: 868-876 (NK1, P2X); Hope, A. G. et al. (1996), Brit. J. Pharmacol., 118: 1237-1245 (5-HT3); Hoyer, D. et al. (1985), Eur. J. Pharmacol., 118: 1-12 (5-HT1B); Hugues, M. et al. (1982), J. Biol. Chem., 257: 2762-2769 (5-HT2A, SKCa channel); Joseph, S. S. et al. (2004), Naun.-Sch. Arch. Pharm., 369: 525-532 (β2); Le, M. T. et al. (2005), Eur. J. Pharmacol., 513: 35-45 (AT1); Le Fur, G. et al. (1983), Life Sci., 33: 449-457) (BZD (peripheral); Lee, Y. M. et al. (1993), J. Biol. Chem., 268: 8164-8169 (CCK2 (CCKB)); Leurs, R. et al. (1994), Brit. J. Pharmacol., 112: 847-854 (H2); Levin, M. C. et al. (2002), J. Biol. Chem., 277: 30429-30435 (11); Lewin, A. H. et al. (1989), Mol. Pharmacol., 35: 189-194 (Cl− channel (GABA-gated)); Lukas, R. J. (1986), J. Neurochem., 46: 1936-1941 (N muscle-type); Luthin, D. R. et al. (1995), Mol. Pharmacol., 47: 307-313; (A2A); Mackenzie, R. G. et al. (1994), Eur. J. Pharmacol., 266: 79-85 (D3); Mulheron, J. G. et al. (1994), J. Biol. Chem., 269: 12954-12962 (5-HT1A); Meng, F. et al. (1993), Proc. Natl. Acad. Sci. U.S.A., 90: 9954-9958 (κ (KOP)); Monsma, F. J. et al. (1993), Mol. Pharmacol., 43: 320-327 (5-HT6); Neote, K. et al. (1993), Cell, 72: 415-425 (CCR1); Pacholczyk, T. et al. (1991), Nature, 350: 350-354 (sst (non-selective, norepinephrine transporter)); Peralta, E. G. et al. (1987), Embo. J., 6: 3923-3929 (M3); Pristupa, Z. B. et al. (1994), Mol. Pharmacol., 45: 125-135 (dopamine transporter); Pruneau, D. et al. (1998), Brit. J. Pharmacol., 125: 365-372 (B2); Rees, S. et al. (1994), FEBS Lett., 355: 242-246 (5-HT5a); Reynolds, I. J. et al. (1986), J. Pharmacol. Exp. Ther., 237: 731-738 (Ca2+ channel (L, verapamil site)); Rinaldi-Carmona, M. et al. (1996), J. Pharmacol. Exp. Ther., 278: 871-878 (CB1); Salvatore, C. A. et al. (1993), Proc. Natl. Acad. Sci. U.S.A., 90: 10365-10369 (A3); Sarau, H. M. et al. (1997), J. Pharmacol. Exp. Ther., 281: 1303-1311 (NK3); Schioth, H. B. et al. (1997), Neuropeptides, 31: 565-571 (MC4); Sharples, C. […]

SMILES | 5HT1a percent inhibition of specific binding
Fc1ccc2c(c1)CCO[C@H]2[C@@H]1CCCN1 [Compound I-9, (S)-2-((R)-6-fluoroisochroman-1-yl)pyrrolidine] | 77%
Fc1ccc2c(c1)[C@H]([C@@H]1CCCN1)OCC2 [Compound I-5, (2S)-2-((R)-7-fluoroisochroman-1-yl)pyrrolidine] | 52%
Fc1ccc2c(c1)CCO[C@H]2[C@@H]1CCN1 [Compound I-90, (S)-2-((R)-6-fluoroisochroman-1-yl)azetidine] | 64%
Fc1cccc2c1[C@H]([C@@H]1CCCN1)OCC2 [Compound I-1, (S)-2-((R)-8-fluoroisochroman-1-yl)pyrrolidine] | 79%
Fc1cccc2c1[C@H]([C@@H]1CCN1)OCC2 [Compound I-83, (S)-2-((R)-8-fluoroisochroman-1-yl)azetidine] | 87%
Clc1ccc2c(c1)[C@H]([C@@H]1CCCN1)OCC2 [Compound I-29, (S)-2-((R)-7-chloroisochroman-1-yl)pyrrolidine] | 71%
